Experimental data: paper PMC9785230, “Glutamine Synthetase Contributes to the Regulation of Growth, Conidiation, Sclerotia Development, and Resistance to Oxidative Stress in the Fungus Aspergillus flavus” (Toxins, 2022)

Target: T1, glutamine synthetase AflGsA (recombinant rAflGsA) (Aspergillus flavus, UniProt A0A7U2MSK3)
T1 construct: gene F9C07_2280198; 6× His-rAflGsA, AflgsA cDNA cloned into pET-28a, expressed in E. coli BL21 (DE3)
T1 sequence (A0A7U2MSK3 1-357): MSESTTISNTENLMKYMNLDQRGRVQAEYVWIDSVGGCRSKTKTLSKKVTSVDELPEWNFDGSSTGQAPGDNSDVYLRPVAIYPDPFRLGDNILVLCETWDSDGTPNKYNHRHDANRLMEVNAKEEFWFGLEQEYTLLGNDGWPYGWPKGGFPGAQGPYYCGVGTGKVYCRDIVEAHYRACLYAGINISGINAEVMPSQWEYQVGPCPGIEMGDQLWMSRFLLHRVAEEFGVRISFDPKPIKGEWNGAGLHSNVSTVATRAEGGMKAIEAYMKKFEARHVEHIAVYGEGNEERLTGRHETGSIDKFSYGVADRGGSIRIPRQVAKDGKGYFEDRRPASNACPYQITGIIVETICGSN
Assay: glutamine synthetase activity assay at […] nm with purified recombinant enzyme, IC50 curve
Type: biochemical

## N[C@@H](CCCC(=O)O)C(=O)O [L-α-aminoadipic acid]
  IC50: 288 µM
